In US7939526B2, “Sulfone substituted imidazo ring ethers” (3M Innovative Properties Company, priority 2003, dated 2011) one finds melting point data, which are given here for three compounds.

The structures appear in SMILES notation.

For `COCc1nc2c(N)nc3ccccc3c2n1CC(C)(C)OCCS(C)(=O)=O` [Example 38, 2-(Methoxymethyl)-1-{2-methyl-2-[2-(methylsulfonyl)ethoxy]propyl}-1H-imidazo[4,5-c]quinolin-4-amine], the melting point (commonly the temperature, or range, at which the solid turns liquid) was 186 to 189 °C.

`COCc1nc2c(N)nc3c(c2n1CC(C)(C)OCCS(C)(=O)=O)CCCC3` [Example 39, 2-(Methoxymethyl)-1-{2-methyl-2-[2-(methylsulfonyl)ethoxy]propyl}-6,7,8,9-tetrahydro-1H-imidazo[4,5-c]quinolin-4-amine] gave a melting point of 195 to 197 °C.

As to `CCOCc1nc2c(N)nc3cccnc3c2n1CC(C)(C)OCCS(C)(=O)=O` [Example 40, 2-Ethoxymethyl-1-{2-[2-(methylsulfonyl)ethoxy]-2-methylpropyl}-1H-imidazo[4,5-c][1,5]naphthyridin-4-amine], the melting point was in the range of 189 to 191 °C.
